From patent US11180461B2, “Triazoles as Kv3 inhibitors” (AUTIFONY THERAPEUTICS LIMITED, priority 2012, dated 2021)

Assays:
[1] = target: T1, human Kv3.1 channels (hKv3.1) (Homo sapiens, UniProt P48547); test: hKv3.1 recombinant cell assay, IonWorks Quattro planar array electrophysiology; type: cell-based; settings: comparable = activity for one channel less than 2 fold that for the other
T1 construct: expressed in transfected cells; host or cells: CHO/Gam/E1A-clone22 (CGE22) cells, transduced with BacMam pFBM/human Kv3.1
T1 sequence (P48547 1-511): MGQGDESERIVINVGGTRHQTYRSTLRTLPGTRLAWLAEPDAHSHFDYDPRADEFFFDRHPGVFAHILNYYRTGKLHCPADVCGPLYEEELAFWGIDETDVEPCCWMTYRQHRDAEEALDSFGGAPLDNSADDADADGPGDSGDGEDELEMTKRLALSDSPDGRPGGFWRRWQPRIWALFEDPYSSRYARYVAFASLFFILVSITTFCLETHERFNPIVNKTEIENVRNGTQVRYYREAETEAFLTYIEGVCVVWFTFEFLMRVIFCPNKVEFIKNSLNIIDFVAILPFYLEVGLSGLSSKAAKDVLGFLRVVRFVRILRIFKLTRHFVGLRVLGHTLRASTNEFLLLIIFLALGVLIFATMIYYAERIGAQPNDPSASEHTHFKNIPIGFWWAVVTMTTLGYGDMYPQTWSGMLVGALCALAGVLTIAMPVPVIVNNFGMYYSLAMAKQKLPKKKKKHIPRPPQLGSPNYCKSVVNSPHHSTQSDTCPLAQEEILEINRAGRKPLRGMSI
Excerpt: The ability of the compounds of the invention to modulate the voltage-gated potassium channel subtypes Kv3.2/3.1 may be determined using the following assay. The assay may also be used to determine the ability of compounds of the invention to modulate the voltage-gated potassium channel Kv3.3. Analogous methods may be used to investigate the ability of the compounds of the invention to modulate other channel subtypes.
To assess compound effects on human Kv3.1 channels (hKv3.1), CHO/Gam/E1A-clone22 alias CGE22 cells were transduced using a hKv3.1 BacMam reagent. This cell line was designed to be an improved CHO-K1-based host for enhanced recombinant protein expression as compared to wild type CHO-K1. The cell line was generated following the transduction of CHO-K1 cells with a BacMam virus expressing the Adenovirus-Gam1 protein and selection with Geneticin-G418, to generate a stable cell line, CHO/Gam-A3. CHO/Gam-A3 cells were transfected with pCDNA3-E1A-Hygro, followed by hygromycin-B selection and FACS sorting to obtain single-cell clones. […]
Experiments were conducted at room temperature using IonWorks Quattro™ planar array electrophysiology technology (Molecular Devices Corp.) with PatchPlate™ PPC. […] Planar electrode hole resistances (Rp) were determined by applying a 10 mV voltage step across each well. […]

[2] = Determination of in vivo pharmacokinetic parameters (blood and brain) in rats, with and without Elacridar; settings: rat, oral 1 mg/kg
Experimental: Adult male rats (Charles River, Italy) were dosed with test compound orally at 1 mg/kg (5 ml/kg, in 5% v/v DMSO, 0.5% w/v HPMC in water) and intravenously at 0.5 mg/kg (2 ml/kg, in 5% v/v DMSO 40% w/v PEG400 in saline). After oral administration, blood samples were collected under deep Isofluorane anesthesia from the portal vein and heart of each rat (1 rat per time point). After intravenous administration, serial blood samples were collected from the lateral tail vein of each rat. A further group of rats (n=1 per test compound) received a single intravenous administration of the PgP transport inhibitor, Elacridar (3 mg/kg) shortly before the oral administration of the test compound at 1 mg/kg, as above. Blood and brain samples were collected at a single timepoint of 0.5 h after dose administration for these animals. In all cases, blood samples were collected into potassium EDTA tubes.
Blood and brain samples were assayed for test compound concentration using a method based on protein precipitation with acetonitrile followed by HPLC/MS-MS analysis with an optimized analytical method.
The concentrations of test compound in blood (expressed as ng/ml) and brain (expressed as ng/g) at the different time points following either oral or intravenous dosing were analysed using a non-compartmental pharmacokinetic model using WinNonLin Professional version 4.1. The following parameters were drived:
Intravenous dosing: Maximum concentration over time (Cmax), integrated concentration over time (AUC), clearance (Clb), volume of distribution (Vss) and half-life (t1/2).
Oral dosing: Cmax, time of maximum concentration (Tmax), AUC, bioavailability (F %), fraction absorbed (Fa %), blood to brain ratio (AUC BB), and Fold-change in AUC BB in the presence of Elacridar.

Cc1ccc(Oc2ccc(-n3c(C)n[nH]c3=O)cn2)c2c1OCC21CC1 [Example 14, 5-methyl-4-{6-[(7-methylspiro[1-benzofuran-3,1′-cyclopropan]-4-yl)oxy]pyridin-3-yl}-2,4-dihydro-3H-1,2,4-triazol-3-one]
activity between modulation of Kv3.1 and Kv3.2 channels [1]: comparable activity between modulation of Kv3.1 and Kv3.2 channels | AUC BB relative to Reference Example 87 and Reference Example 88 of WO2011069951A1 ([2]; AUC BB from blood and brain): at least two fold | change in AUC BB in the presence of Elacridar ([2]; Elacridar 3 mg/kg i.v., blood and brain at 0.5 h, p-glycoprotein interaction): limited change
